Assay results published in patent US9694016B2 (Novartis AG, priority 2013, dated 2017).
Like-named read-outs stand apart in the source and are kept apart here.

Target: b-Raf (V600E) (Homo sapiens (Human), UniProt P15056, V600E)
Details: read-out: b-Raf IC-50, AlphaScreen
[1] = 60 min pre-incubation, reaction 3 hours at room temperature
[2] = 60 min pre-incubation, 3 hours reaction

Chain of b-Raf (V600E) (P15056 whole entry V600E): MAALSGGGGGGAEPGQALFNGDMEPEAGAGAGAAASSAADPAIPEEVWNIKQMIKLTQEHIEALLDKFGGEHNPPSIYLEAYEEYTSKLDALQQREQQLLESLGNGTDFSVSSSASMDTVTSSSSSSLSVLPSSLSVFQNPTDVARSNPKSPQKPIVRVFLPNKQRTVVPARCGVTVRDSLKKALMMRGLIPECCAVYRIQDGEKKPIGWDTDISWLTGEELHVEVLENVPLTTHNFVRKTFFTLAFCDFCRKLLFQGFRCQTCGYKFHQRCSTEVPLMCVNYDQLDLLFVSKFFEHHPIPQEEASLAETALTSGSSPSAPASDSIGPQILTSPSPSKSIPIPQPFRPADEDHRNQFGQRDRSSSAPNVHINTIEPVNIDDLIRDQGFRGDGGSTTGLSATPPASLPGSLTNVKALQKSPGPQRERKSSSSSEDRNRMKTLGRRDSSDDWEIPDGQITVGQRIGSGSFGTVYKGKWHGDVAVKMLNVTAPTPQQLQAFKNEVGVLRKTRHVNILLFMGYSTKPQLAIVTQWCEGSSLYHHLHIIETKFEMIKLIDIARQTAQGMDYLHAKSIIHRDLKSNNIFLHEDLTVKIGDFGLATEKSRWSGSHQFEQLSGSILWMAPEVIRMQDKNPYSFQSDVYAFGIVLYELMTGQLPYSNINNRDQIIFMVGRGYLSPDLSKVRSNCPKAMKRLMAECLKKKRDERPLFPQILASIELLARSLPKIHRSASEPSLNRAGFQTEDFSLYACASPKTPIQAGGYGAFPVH

| Structure (SMILES) | IC50 [1] | IC50 (Table 2, 3 hours reaction) | further results |
| --- | --- | --- | --- |
| Cc1ncc(NC(=O)c2ccnc(C(C)(C)C#N)c2)cc1-c1cc(N2CCOCC2)nc(N2CC(O)C2)c1 [Example 1083, 2-(2-cyanopropan-2-yl)-N-(2′-(3-hydroxyazetidin-1-yl)-2-methyl-6′-morpholino-[3,4′-bipyridin]-5-yl)isonicotinamide] | 35.2 nM |  |  |
| CCOc1ncc(-c2cc(NC(=O)c3ccnc(C4CC4)c3)cnc2C)cc1N1CCOCC1 [Example 254, 2-cyclopropyl-N-(6′-ethoxy-2-methyl-5′-morpholino-[3,3′-bipyridin]-5-yl)isonicotinamide] |  | 1.8 nM |  |
| Cc1ncc(NC(=O)c2cc(C(C)(C)F)ccn2)cc1-c1cnc(OCCO)c(N2CCOCC2)c1 [Example 971, 4-(2-fluoropropan-2-yl)-N-(6′-(2-hydroxyethoxy)-2-methyl-5-morpholino-[3,3′-bipyridin]-5-yl)picolinamide] | 8.27 nM |  |  |
| COc1nnc(-c2cc(NC(=O)c3ccnc(C(F)(F)F)c3)cnc2C)cc1N1CCOCC1 [Example 605, N-(5-(6-methoxy-5-morpholinopyridazin-3-yl)-6-methylpyridin-3-yl)-2-(trifluoromethyl)isonicotinamide] |  |  | IC50 [2]: 2.7 nM |
| CCOc1nnc(-c2cc(C(=O)Nc3ccnc(C(C)(F)F)c3)ccc2C)cc1N1CCOCC1 [Example 1020, N-(2-(1,1-difluoroethyl)pyridin-4-yl)-3-(6-ethoxy-5-morpholinopyridazin-3-yl)-4-methylbenzamide] | 7.72 nM |  |  |
| Cc1ccc(NC(=O)c2ccnc(C(F)(F)F)c2)cc1-c1cc(N2CCOCC2)c(OCCO)nn1 [Example 585, N-(3-(6-(2-hydroxyethoxy)-5-morpholinopyridazin-3-yl)-4-methylphenyl)-2-(trifluoromethyl)isonicotinamide] |  |  | IC50 [2]: 1.4 nM |
| Cc1c(-c2nc3c(c(N4CCOCC4)n2)CS(=O)(=O)C3)cc(NC(=O)c2cccc(C(F)(F)F)c2)c[n+]1[O-] [Example 887, 2-methyl-3-(4-morpholino-6,6-dioxido-5,7-dihydrothieno[3,4-d]pyrimidin-2-yl)-5-(3-(trifluoromethyl)benzamido)pyridine 1-oxide] | 1300 nM |  |  |
| Cc1ccc(NC(=O)c2ccnc(C(C)(C)O)c2)cc1-c1cnc(OC2CCOCC2)c(N2CCOCC2)c1 [Example 277, 2-(2-hydroxypropan-2-yl)-N-(4-methyl-3-(5-morpholino-6-((tetrahydro-2H-pyran-4-yl)oxy)pyridin-3-yl)phenyl)isonicotinamide] |  | 1 nM |  |
| COc1ccc(C(=O)Nc2cnc(Cl)c(-c3cc(N4CCOCC4)c(=O)n(C)c3)c2)cc1C(F)(F)F [Example 408, N-(2-chloro-1′-methyl-5′-morpholino-6′-oxo-1′,6′-dihydro-[3,3-bipyridin]-5-yl)-4-methoxy-3-(trifluoromethyl)benzamide] |  | 6.8 nM |  |
| Cc1ccc(NC(=O)c2ccnc(C(C)(C)C#N)c2)cc1-c1cc(N2CCOCC2)nc(NC2(CO)CCOCC2)n1 [Example 754, 2-(2-cyanopropan-2-yl)-N-(3-(2-((4-(hydroxymethyl)tetrahydro-2H-pyran-4-yl)amino)-6-morpholinopyrimidin-4-yl)-4-methylphenyl)isonicotinamide] |  |  | IC50 [2]: 3.4 nM |
| CCNc1nc(-c2cc(NC(=O)c3ccnc(C(C)(C)O)c3)ccc2C)cc(N2CCOC[C@@H]2C)n1 [Example 713, (S)—N-(3-(2-(ethylamino)-6-(3-methylmorpholino)pyrimidin-4-yl)-4-methylphenyl)-2-(2-hydroxypropan-2-yl)isonicotinamide] |  |  | IC50 [2]: 2.5 nM |

Now from value to compound, other results behind:

| IC50 [1] | IC50 (Table 2, 3 hours reaction) | Structure (SMILES) | further results |
| --- | --- | --- | --- |
|  | 2.5 nM | Cc1ccc(C(=O)Nc2cccc(C(F)(F)F)c2)cc1-c1cc(N2CCS(=O)(=O)CC2)nc(N2CCOCC2)n1 [Example 7, 3-(6-(1,1-dioxidothiomorpholino)-2-morpholinopyrimidin-4-yl)-4-methyl-N-(3-(trifluoromethyl)phenyl)benzamide] |  |
| 4.99 nM |  | Cc1ccc(NC(=O)c2cccc(C(F)(F)F)c2)cc1-c1ccnc(N2CCOCC2=O)c1 [Example 1134] |  |
|  | 0.3 nM | Cc1ccc(NC(=O)c2cccc(C(F)(F)F)c2)cc1-c1cc(N2CCOCC2)ncn1 [Example 1, N-(4-methyl-3-(6-morpholinopyrimidin-4-yl)phenyl)-3-(trifluoromethyl)benzamide] |  |
